Results taken from ChEMBL document CHEMBL4706546, “Sulfoximines as Rising Stars in Modern Drug Discovery? Current Status and Perspective on an Emerging Functional Group in Medicinal Chemistry” (J Med Chem, 2020).
pIC50: −log10 of the molar value. ≈ marks a conversion by molar mass, not a printed value.

Tests used:
in vitro [1] = conditions: human, Caco-2
Description: Apparent permeability across apical to basolateral side in human Caco2 cells at 2 uM measured after 2 hrs by LC-MS/MS analysis

A-375 = assay: cells; assay type: functional; conditions: Homo sapiens, time 72 hrs
Description: Antiproliferative activity against human A375 cells assessed as cell proliferation at 25 uM after 72 hrs by alamarBlue cell proliferation assay relative to control

Rattus norvegicus [2] = species on record: Rattus norvegicus; assay: animal or person; assay type: functional; conditions: iv, 0.5 min, time 30 sec
Description: Antiallergic activity in iv dosed rat model of IgE-mediated passive cutaneous anaphylaxis administered 30 secs prior to IgE challenge

Carbonic anhydrase 2 = Carbonic anhydrase 2 (Homo sapiens, UniProt P00918); assay type: ADME
Description: Inhibition of human carbonic anhydrase 2 using 4-nitrophenyl acetate as substrate by spectrophotometry

[3] = biological target: Vascular endothelial growth factor receptor 2 (Homo sapiens, UniProt P35968); assay type: cell-based, Sf9
physchem [4] = conditions: buffer
Description: Thermodynamic solubility in water by equilibrium shake-flask method

physchem [5] = conditions: in vivo, pH 7.4
Dipeptidyl peptidase 4 = Dipeptidyl peptidase 4 (Homo sapiens, UniProt P27487)
Description: Inhibition of human DPP4 expressed in baculovirus expression system using Gly-Pro-AMC as substrate by fluorometric assay

Plasmodium falciparum [6] = assay: microbe, parasite or virus in culture; assay type: functional, organism-based; conditions: 3D7, Erythrocyte, 48 h
Description: Antiplasmodial activity against Plasmodium falciparum 3D7 infected in human erythrocytes incubated for 48 hrs by lactate dehydrogenase colorimetric enzyme assay

[7] = biological target: Cyclin-dependent kinase 1/cyclin B1 (Homo sapiens, UniProt P06493); assay type: cell-based, Sf9
[8] = biological target: T1, Cyclin-dependent kinase 2/cyclin E1 (Homo sapiens, UniProt P24941); assay type: cell-based, Sf9
MCF7 = assay: cells; assay type: functional, cell-based; conditions: Homo sapiens, MCF7, 96 h
Description: Antiproliferative activity against human MCF7 cells incubated for 4 days by crystal violet staining based assay

[9] = human, hepatocytes, 1 µM
Description: Clearance in human hepatocytes at 1 uM measured after 2 to 90 mins by HPLC-based LCMS/MS analysis

[10] = rat, hepatocytes, 1 µM
Description: Clearance in rat hepatocytes at 1 uM measured after 2 to 90 mins by HPLC-based LCMS/MS analysis

[11] = biological target: cGMP-specific 3',5'-cyclic phosphodiesterase (Homo sapiens, UniProt O76074); assay type: cell-based; conditions: platelet
Description: Inhibition of human platelets derived PDE5 using [3H]-cGMP as substrate incubated for 60 min by scintillation proximity assay

in vitro [12] = conditions: human, Caco-2; remark: listed apart in the source
Description: Efflux ratio of apparent permeability across basolateral to apical side over apical to basolateral side in human Caco2 cells

[13] = biological target: T1, Cyclin-dependent kinase 2/cyclin E1; assay type: cell-based, Sf9; remark: listed apart in the source
Estrogen receptor = biological target: T2, Estrogen receptor (Homo sapiens, UniProt P03372)
T2 sequence (P03372 whole entry): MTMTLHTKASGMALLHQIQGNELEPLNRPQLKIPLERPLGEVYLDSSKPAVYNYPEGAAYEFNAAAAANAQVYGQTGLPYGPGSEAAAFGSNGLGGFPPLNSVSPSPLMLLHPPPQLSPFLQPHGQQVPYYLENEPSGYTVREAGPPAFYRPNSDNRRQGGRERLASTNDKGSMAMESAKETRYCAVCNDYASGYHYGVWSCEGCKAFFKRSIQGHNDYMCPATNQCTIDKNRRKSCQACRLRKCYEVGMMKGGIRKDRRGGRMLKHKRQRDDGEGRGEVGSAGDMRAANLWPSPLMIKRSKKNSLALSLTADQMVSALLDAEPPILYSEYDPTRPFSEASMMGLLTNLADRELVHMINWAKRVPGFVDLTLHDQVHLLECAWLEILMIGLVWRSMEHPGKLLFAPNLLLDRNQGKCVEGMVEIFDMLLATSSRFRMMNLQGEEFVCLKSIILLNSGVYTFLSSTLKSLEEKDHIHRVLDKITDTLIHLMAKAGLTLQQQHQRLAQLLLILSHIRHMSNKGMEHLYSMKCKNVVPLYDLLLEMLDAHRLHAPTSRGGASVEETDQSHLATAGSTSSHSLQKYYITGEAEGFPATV
Description: Inhibition of wild type ESR1 (unknown origin) by transactivation assay

physchem [14] = conditions: in vivo, pH 6.5
Plasmodium falciparum [15] = assay: microbe, parasite or virus in culture; assay type: functional, organism-based; conditions: 3D7
Description: Antiplasmodial activity against Plasmodium falciparum 3D7

[16] = biological target: T3, 1,25-dihydroxyvitamin D(3) 24-hydroxylase, mitochondrial (Homo sapiens, UniProt Q07973); assay: biochemical; assay type: cell-based, V79
T3 sequence (Q07973 whole entry): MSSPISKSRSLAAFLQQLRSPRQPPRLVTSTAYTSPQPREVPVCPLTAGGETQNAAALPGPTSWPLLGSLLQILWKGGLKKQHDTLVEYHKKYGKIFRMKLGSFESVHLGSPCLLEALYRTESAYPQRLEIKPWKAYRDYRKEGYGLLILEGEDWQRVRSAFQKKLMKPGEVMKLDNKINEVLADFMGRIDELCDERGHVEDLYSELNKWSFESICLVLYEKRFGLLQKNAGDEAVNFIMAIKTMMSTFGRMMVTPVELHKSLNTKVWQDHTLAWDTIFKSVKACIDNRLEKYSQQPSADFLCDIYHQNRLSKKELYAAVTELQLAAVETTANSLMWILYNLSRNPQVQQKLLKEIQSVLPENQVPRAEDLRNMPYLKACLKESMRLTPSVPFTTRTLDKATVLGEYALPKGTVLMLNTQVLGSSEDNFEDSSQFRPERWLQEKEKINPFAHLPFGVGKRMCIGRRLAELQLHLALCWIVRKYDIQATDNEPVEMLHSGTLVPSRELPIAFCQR

Beta-secretase 1 = Beta-secretase 1 (Homo sapiens, UniProt P56817); assay type: cell-based, HEK293
Description: Inhibition of BACE1 in HEK293 cells harboring APP assessed as reduction in amyloidbeta 40 level measured after 18 to 20 hrs by AlphaLISA Assay

HeLa = assay: cells; assay type: functional, cell-based; conditions: Homo sapiens, 96 h
Description: Antiproliferative activity against human HeLa cells incubated for 96 hrs by crystal violet staining assay

[17] = biological target: T4, Nuclear receptor ROR-gamma (Homo sapiens, UniProt P51449); assay type: cell-based, CD4+ve Th
T4 sequence (P51449 whole entry): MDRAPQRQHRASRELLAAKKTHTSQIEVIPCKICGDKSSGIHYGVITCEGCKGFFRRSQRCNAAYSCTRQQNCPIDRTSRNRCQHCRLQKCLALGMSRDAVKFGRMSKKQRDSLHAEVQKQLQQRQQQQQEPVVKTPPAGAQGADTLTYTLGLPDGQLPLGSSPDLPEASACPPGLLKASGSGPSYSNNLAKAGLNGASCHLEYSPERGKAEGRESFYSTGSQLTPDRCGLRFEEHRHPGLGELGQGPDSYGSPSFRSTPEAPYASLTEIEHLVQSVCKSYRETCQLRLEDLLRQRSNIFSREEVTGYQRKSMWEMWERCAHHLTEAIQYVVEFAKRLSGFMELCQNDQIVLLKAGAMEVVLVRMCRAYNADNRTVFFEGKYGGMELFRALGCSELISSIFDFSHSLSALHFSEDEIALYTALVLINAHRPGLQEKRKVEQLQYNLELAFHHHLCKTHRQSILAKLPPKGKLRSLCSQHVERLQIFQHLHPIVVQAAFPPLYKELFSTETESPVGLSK
Description: Inverse agonist activity at RORgammat in human CD4-positive T cells assessed as reduction in Th17 level incubated for 5 days by MSD electrochemiluminescent cytokine assay

Rattus norvegicus [18] = species on record: Rattus norvegicus; assay: animal or person; assay type: functional; conditions: po, 0.5 h, time 30 min
Description: Antiallergic activity in po dosed rat model of IgE-mediated passive cutaneous anaphylaxis administered 30 mins prior to IgE challenge

Sequence of Beta-secretase 1 (P56817 whole entry): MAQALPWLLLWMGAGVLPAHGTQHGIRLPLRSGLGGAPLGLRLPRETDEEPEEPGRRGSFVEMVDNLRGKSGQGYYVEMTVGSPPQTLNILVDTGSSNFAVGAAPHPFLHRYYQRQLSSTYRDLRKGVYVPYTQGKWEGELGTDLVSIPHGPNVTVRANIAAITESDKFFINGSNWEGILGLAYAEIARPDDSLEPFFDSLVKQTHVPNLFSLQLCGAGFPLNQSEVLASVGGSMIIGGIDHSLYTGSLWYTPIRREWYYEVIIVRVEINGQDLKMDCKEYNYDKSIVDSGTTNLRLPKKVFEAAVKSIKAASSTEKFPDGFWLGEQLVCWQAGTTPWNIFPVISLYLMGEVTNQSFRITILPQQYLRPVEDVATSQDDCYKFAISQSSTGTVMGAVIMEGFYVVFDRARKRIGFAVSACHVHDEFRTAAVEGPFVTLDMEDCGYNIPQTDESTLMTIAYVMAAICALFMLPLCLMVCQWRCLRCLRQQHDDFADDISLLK
Sequence of Vascular endothelial growth factor receptor 2 (P35968 whole entry): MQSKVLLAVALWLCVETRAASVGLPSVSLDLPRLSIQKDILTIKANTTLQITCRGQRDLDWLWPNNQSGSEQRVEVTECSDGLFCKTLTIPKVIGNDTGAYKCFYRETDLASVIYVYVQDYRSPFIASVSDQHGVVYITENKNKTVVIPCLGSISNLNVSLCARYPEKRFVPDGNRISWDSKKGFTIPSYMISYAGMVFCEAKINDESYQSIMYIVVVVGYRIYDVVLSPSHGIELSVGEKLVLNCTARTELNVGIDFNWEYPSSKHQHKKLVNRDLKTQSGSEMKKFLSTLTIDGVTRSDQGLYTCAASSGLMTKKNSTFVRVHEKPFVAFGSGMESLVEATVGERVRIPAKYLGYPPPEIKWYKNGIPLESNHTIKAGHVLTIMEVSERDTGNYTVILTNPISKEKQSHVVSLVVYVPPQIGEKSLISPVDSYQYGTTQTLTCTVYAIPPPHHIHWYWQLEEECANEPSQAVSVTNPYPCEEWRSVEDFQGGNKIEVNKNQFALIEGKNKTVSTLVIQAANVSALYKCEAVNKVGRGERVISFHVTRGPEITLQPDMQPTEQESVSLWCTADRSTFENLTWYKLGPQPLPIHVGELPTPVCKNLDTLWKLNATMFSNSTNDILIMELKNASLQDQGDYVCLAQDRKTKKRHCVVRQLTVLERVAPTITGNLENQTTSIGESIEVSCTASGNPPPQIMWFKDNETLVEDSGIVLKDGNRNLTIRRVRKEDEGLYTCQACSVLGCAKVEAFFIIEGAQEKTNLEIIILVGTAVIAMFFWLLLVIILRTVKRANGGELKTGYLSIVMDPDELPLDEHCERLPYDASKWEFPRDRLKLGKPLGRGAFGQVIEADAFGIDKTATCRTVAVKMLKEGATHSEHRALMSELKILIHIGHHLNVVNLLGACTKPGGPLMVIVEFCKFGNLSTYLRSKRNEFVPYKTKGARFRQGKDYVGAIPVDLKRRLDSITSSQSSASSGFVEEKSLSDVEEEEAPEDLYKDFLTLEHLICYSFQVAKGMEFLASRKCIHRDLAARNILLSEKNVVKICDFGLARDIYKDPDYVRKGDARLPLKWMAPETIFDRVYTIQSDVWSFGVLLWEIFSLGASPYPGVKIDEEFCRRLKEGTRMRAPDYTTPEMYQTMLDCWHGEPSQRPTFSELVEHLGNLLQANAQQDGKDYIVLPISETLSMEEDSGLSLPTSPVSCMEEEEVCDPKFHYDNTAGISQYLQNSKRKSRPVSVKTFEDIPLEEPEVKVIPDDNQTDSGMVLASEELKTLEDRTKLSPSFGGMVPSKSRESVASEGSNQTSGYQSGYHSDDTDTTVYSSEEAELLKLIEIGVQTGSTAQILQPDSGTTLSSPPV
Sequence of Dipeptidyl peptidase 4 (P27487 whole entry): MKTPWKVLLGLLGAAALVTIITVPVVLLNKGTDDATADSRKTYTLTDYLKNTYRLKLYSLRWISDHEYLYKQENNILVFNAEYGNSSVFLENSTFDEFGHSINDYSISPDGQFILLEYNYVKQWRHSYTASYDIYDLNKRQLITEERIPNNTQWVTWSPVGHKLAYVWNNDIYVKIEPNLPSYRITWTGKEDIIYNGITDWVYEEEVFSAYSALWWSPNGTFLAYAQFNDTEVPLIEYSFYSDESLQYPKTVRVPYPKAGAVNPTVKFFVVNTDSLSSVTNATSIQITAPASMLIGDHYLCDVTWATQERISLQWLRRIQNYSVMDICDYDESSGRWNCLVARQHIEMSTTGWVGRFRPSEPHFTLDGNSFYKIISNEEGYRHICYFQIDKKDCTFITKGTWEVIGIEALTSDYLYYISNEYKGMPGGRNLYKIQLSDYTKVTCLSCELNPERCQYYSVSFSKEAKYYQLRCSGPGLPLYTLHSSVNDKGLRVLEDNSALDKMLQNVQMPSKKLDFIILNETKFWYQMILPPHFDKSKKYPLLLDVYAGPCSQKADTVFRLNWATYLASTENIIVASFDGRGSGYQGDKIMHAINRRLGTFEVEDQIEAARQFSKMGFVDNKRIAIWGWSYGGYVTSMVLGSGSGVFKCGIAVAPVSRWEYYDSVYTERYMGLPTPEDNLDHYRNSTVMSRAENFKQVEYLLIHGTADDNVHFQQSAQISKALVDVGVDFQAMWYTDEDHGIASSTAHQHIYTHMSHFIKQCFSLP
Sequence of Cyclin-dependent kinase 1/cyclin B1 (P06493 whole entry): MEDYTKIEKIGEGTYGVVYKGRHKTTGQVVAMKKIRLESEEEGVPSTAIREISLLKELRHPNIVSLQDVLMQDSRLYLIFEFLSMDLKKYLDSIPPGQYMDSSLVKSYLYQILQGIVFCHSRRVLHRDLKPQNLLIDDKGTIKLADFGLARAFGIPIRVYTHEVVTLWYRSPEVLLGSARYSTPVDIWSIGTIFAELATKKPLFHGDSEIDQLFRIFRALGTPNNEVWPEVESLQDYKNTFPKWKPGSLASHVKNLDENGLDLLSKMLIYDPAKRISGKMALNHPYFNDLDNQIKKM
Sequence of Cyclin-dependent kinase 1/cyclin B1 (P14635 whole entry, further chain): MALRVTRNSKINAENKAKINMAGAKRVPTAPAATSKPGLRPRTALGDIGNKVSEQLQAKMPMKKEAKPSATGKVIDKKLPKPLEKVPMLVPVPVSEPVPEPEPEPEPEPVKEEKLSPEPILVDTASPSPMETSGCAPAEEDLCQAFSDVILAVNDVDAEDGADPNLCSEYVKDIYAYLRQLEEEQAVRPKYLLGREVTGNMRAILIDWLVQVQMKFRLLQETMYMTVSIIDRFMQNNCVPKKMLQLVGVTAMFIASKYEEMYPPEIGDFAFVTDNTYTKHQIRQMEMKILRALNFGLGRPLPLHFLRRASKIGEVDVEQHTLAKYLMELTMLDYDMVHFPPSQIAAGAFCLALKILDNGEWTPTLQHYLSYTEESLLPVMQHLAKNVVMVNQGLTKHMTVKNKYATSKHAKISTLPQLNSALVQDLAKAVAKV

SMILES: CCCc1nc(C)c2c(=O)[nH]c(-c3cc(S(=O)(=O)N4CCN(CC)CC4)ccc3OCC)nn12
- Papp A→B at 2 h, 2 µM (in vitro [1]): 206 ×10⁻⁶ cm/s

SMILES: O=C(NS(=O)(=O)c1ccc(Br)s1)c1ccc(Cl)cc1Cl
- growth at 25 µM (A-375): 25%

SMILES: CS(=N)(=O)c1ccc2oc3ccc(C(=O)O)cc3c(=O)c2c1 (configuration not stated)
- ED50 (Rattus norvegicus [2]): 0.03 mg/kg

SMILES: C[C@@H](O)[C@@H](C)Oc1nc(Nc2ccc(S(C)(=O)=O)cc2)ncc1C(F)(F)F
- pIC50 (Carbonic anhydrase 2): < 5.00

SMILES: C[C@@H](O)[C@@H](C)Oc1nc(Nc2ccc([S@](=N)(=O)C3CC3)cc2)ncc1C(F)(F)F
- pIC50 [3]: 6.79
- pIC50 (Carbonic anhydrase 2): < 5.00
- solubility thermodynamic (physchem [4]): 182 µg/mL (≈ 423 µM)

SMILES: COc1cc(F)ccc1-c1ncnc(Nc2cccc(CS(N)(=O)=O)c2)n1
- solubility thermodynamic at 24 h (physchem [5]): 11 µg/mL (≈ 28.2 µM)

SMILES: N[C@H]1C[C@@H](N2Cc3cn(S(=O)(=O)NC(=O)c4ccccc4)nc3C2)CO[C@@H]1c1cc(F)ccc1F
- pIC50 (Dipeptidyl peptidase 4): 8.06

SMILES: CC(C)(C)c1ccc2c(c1)[C@H]1O[C@H](COCc3ccccc3)[C@@H](OCc3ccccc3)[C@H](OCc3ccccc3)[C@H]1C[S@@]2(=N)=O
- pIC50 (Plasmodium falciparum [6]): 6.10

SMILES: CCS(=N)(=O)c1ccc(Nc2ncc(Br)c(O[C@H](C)[C@@H](C)O)n2)cc1 (some centres not stated)
- pIC50 [7]: 8.70
- pIC50 [8]: 8.52
- pIC50 [3]: 7.49
- pIC50 (Carbonic anhydrase 2): < 5.00
- pIC50 (MCF7): 7.36

SMILES: N=S1(=O)CCC(NC(=O)c2n[nH]cc2NC(=O)c2c(Cl)cccc2Cl)CC1 (configuration not stated)
- CLH [9]: 1 mL/min/kg
- CLH [10]: 1 mL/min/kg

SMILES: CN=S1(=O)C[C@@H]2[C@@H](OCc3ccccc3)[C@H](OCc3ccccc3)[C@@H](COCc3ccccc3)O[C@@H]2c2cc(C(C)(C)C)ccc21 (some centres not stated)
- pIC50 (Plasmodium falciparum [6]): 6.05

SMILES: CCCc1nc(C)c2c(=O)[nH]c(-c3cc(S(=O)(=O)N4CCS(=N)(=O)CC4)ccc3OCC)nn12
- pIC50 [11]: 10.60
- efflux ratio (in vitro [12]): 288
- Papp A→B at 2 h, 2 µM (in vitro [1]): 0.71 ×10⁻⁶ cm/s

SMILES: COc1cc(F)ccc1-c1cc(Nc2cc(C[S@@](C)(=N)=O)ccn2)ncc1F
- pIC50 [13]: 5.53

SMILES: C[C@H](CO)Nc1nc(Nc2ccc(S(N)(=O)=O)cc2)ncc1Br.Cl
- pIC50 [3]: 7.47
- pIC50 (Carbonic anhydrase 2): 6.29
- solubility thermodynamic (physchem [4]): 8 µg/mL

SMILES: CS(=O)(=NS(=O)(=O)c1ccccc1)n1cc2c(n1)CN([C@H]1CO[C@H](c3cc(F)ccc3F)[C@@H](N)C1)C2 (some centres not stated)
- pIC50 (Dipeptidyl peptidase 4): 7.74

SMILES: C[C@]12CC[C@@H]3c4ccc(O)cc4C[C@@H](CCCCCCCCC[S@@](=N)(=O)CCCC(F)(F)C(F)(F)F)[C@H]3[C@@H]1CC[C@@H]2O
- pIC50 (Estrogen receptor): 8.74

SMILES: N=S(=O)(NC(=O)c1ccc(Cl)cc1Cl)c1ccc(Br)s1 (configuration not stated)
- growth at 25 µM (A-375): 40%

SMILES: COc1cc(F)ccc1-c1nc(Nc2cc(F)cc(CS(C)(=N)=N)c2)ncc1F
- solubility thermodynamic at 24 h (physchem [14]): 91 µg/mL (≈ 216 µM)

SMILES: CCCCCCCCCCCS(=O)(=NCc1cn(Cc2ccccc2)nn1)c1ccccc1 (configuration not stated)
- pIC50 (Plasmodium falciparum [15]): 5.18

SMILES: C=C1/C(=C\C=C2/CCC[C@]3(C)C([C@H](C)/C=C/S(=O)(=O)C(C)(C)C)=CC[C@@H]23)C[C@@H](O)C[C@@H]1O
- pIC50 [16]: 7.57

SMILES: Cc1cc(C#N)cnc1C(=O)Nc1ccc(F)c([C@]2(C)CS(=O)(=NCC(F)(F)F)N(C)C(N)=N2)c1 (single isomer, unassigned)
- pIC50 (Beta-secretase 1): 9.00

SMILES: CN=S1(=O)C[C@@](C)(c2cc(NC(=O)c3ncc(C#N)cc3C)ccc2F)N=C(N)N1CC(F)(F)F (single isomer, unassigned)
- pIC50 (Beta-secretase 1): 9.23

SMILES: N#Cc1ccc(C(=O)Nc2ccc(F)c([C@]3(CF)CS4(=O)=NCCCCN4C(N)=N3)c2)nc1 (single isomer, unassigned)
- pIC50 (Beta-secretase 1): 7.55

SMILES: C[C@@]1(c2cc(NC(=O)c3cnc(C#N)cn3)ccc2F)CS2(=O)=NCC(F)(F)CN2C(N)=N1 (single isomer, unassigned)
- pIC50 (Beta-secretase 1): 8.70

SMILES: O=C(NC1CCNCC1)c1n[nH]cc1NC(=O)c1c(Cl)cccc1Cl [AT-7519]
- CLH [9]: 4 mL/min/kg
- CLH [10]: 29.3 mL/min/kg

SMILES: COc1cc(F)ccc1-c1ncnc(Nc2cccc(C[S@](C)(=N)=O)c2)n1 [ATUVECICLIB]
- solubility thermodynamic at 24 h (physchem [5]): 479 µg/mL (≈ 1240 µM)
- pIC50 (HeLa): 5.82

SMILES: O=C([O-])c1cc(=O)c2c(OCC(O)COc3cccc4oc(C(=O)[O-])cc(=O)c34)cccc2o1.[Na+].[Na+] [CROMOLYN SODIUM]
- ED50 (Rattus norvegicus [2]): 1.21 mg/kg

SMILES: CCc1ccc(N(CC(C)C)S(=O)(=O)c2ccc(OCC3CCOCC3)c(CO)c2)cc1 [GSK2981278]
- pIC50 [17]: 8.49

SMILES: CCCCCCc1cc(S(C)(=N)=O)cc2c(=O)c3cc(C(=O)O)ccc3oc12 (configuration not stated) [SUDEXANOX]
- ED50 (Rattus norvegicus [18]): 0.19 mg/kg
